Here are results for 30 molecules from patent US20110002855A1 (NEUROGEN CORPORATION, priority 2007, published 2011).

The experiment deals with T1, chimeric human H3 receptor (Homo sapiens, UniProt Q9Y5N1).
T1 construct: made in house; host or cells: Sf9 insect cells (baculovirus); P2 membrane preparation
Description: Chimeric human H3 receptor screening GTP binding assay at 4 μM (Example 8). In kind it is biochemical. To be noted: test compound 4 μM, 1 μM histamine, P2 membranes of Sf9 cells; read-out: % (percent inhibition of agonist-induced GTP-gammaS binding to H3). The method, then: This Example illustrates a representative screening assay for evaluating inhibition of histamine-stimulated GTP-gamma^35S binding. Such GTP binding activity can be used to identify H3 antagonists and inverse agonists. A compound analyzed in this assay is referred to herein as a “test compound,” and the initial identification of antagonists and inverse agonists is performed using a test compound concentration of 4 μM.
Four independent baculoviral stocks (one directing the expression of the chimeric human H3 receptor and three directing the expression of each of the three subunits of a heterotrimeric G-protein) are used to infect a culture of Sf9 cells as described above. P2 membranes are prepared as described above, and are resuspended by Dounce homogenization (tight pestle) in GTP binding assay buffer (50 mM Tris pH 7.4, 120 mM NaCl, 5 mM MgCl2, 2 mM EGTA, 1 mg/ml BSA, 0.2 mg/ml bacitracin, 0.02 mg/ml aprotinin, 0.01 mg/ml saponin, 10 μM GDP) and added to assay tubes at a concentration of 35 μg protein/reaction tube. Non-radiolabeled test compounds are added to separate reactions at a concentration of 4 μM along with 1 μM histamine (agonist). Reactions are initiated by the addition of 125 pM GTP-gamma^35S with a final assay volume of 0.20 ml.
After a 60-min incubation at room temperature, reactions are terminated by vacuum filtration over GF/C filters (pre-soaked in 50 mM Tris pH 7.4, 120 mM NaCl plus 0.1% BSA) followed by washing with ice-cold buffer (50 mM Tris pH 7.4, 120 mM NaCl). The amount of receptor-bound (and thereby membrane-bound) GTP-gamma^35S is determined by measuring the bound radioactivity, preferably by liquid scintillation spectrometry of the washed filters. Non-specific binding is determined using 10 uM GTP-gammaS and typically represents less than 5 percent of total binding. After subtraction of non-specific binding, data is expressed as percent inhibition of 1 μM histamine signal.
Neutral antagonists are those test compounds that reduce the histamine-stimulated GTP binding activity towards, but not below, baseline levels. In contrast, in the absence of added histamine, inverse agonists reduce the GTP binding activity of the receptor-containing membranes below baseline. Any test compound that elevates GTP binding activity above baseline in the absence of added histamine in this assay is defined as having agonist activity.

T1 sequence (Q9Y5N1 with tags, fused parts or gaps): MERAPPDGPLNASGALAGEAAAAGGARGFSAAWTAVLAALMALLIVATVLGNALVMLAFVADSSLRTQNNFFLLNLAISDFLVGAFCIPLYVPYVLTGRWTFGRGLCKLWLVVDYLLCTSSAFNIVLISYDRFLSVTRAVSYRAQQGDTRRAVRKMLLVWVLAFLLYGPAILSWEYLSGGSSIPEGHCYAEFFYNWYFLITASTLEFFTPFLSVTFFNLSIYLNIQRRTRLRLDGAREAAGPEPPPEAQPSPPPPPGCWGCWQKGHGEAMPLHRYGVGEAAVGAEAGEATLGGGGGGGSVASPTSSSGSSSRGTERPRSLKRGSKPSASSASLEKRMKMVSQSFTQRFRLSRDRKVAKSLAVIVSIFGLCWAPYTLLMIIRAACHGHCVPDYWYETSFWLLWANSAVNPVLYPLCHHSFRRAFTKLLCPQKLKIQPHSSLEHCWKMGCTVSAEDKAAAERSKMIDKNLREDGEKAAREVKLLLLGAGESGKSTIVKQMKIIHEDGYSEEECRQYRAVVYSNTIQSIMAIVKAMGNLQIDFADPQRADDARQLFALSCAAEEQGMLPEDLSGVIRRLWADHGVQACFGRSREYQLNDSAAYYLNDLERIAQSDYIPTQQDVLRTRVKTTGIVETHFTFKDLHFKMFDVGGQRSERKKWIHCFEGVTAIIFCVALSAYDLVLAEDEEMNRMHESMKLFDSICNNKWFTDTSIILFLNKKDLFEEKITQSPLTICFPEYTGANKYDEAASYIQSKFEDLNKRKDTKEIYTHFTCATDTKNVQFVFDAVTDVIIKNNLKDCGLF

Consider `CC(C)CN1CCN(C(=O)CN2CCc3c([nH]c4ccccc34)C2)CC1` [Compound 50, 2-[2-(4-Isobutylpiperazin-1-yl)-2-oxoethyl]-2,3,4,9-tetrahydro-1H-beta-carboline], for which the inhibition at 4 µM was at least 90%.

With `CC(c1ccccc1)N1CCN(C(=O)CN2CCc3c([nH]c4ccccc34)C2)CC1` (stereo not drawn) [Compound 59, 2-{2-Oxo-2-[4-(1-phenylethyl)piperazin-1-yl]ethyl}-2,3,4,9-tetrahydro-1H-beta-carboline], the inhibition at 4 µM was at least 90%.

For the molecule `CCN(CC)C1CCN(C(=O)CN2CCc3c([nH]c4ccccc34)C2)CC1` [Compound 46, N,N-Diethyl-1-(1,3,4,9-tetrahydro-2H-beta-carbolin-2-ylacetyl)piperidin-4-amine], the inhibition at 4 µM was at least 90%.

As for `CCCN(C(=O)CN1CCc2c([nH]c3ccccc23)C1)C1CCN(C)CC1` [Compound 60, N-(1-Methylpiperidin-4-yl)-N-propyl-2-(1,3,4,9-tetrahydro-2H-beta-carbolin-2-yl)acetamide], the inhibition at 4 µM was at least 90%.

Turning to `CC(C)N1CCCN(C(=O)CN2CCc3c([nH]c4ccccc34)C2)CC1` [Compound 36, 2-[2-(4-Isopropyl-1,4-diazepan-1-yl)-2-oxoethyl]-2,3,4,9-tetrahydro-1H-beta-carboline], the inhibition at 4 µM is at least 90%.

Regarding `CN(C)CCCN(C(=O)CN1CCc2c([nH]c3ccccc23)C1)C1CCN(C)CC1` [Compound 61, N-[3-(Dimethylamino)propyl]-N-(1-methylpiperidin-4-yl)-2-(1,3,4,9-tetrahydro-2H-beta-carbolin-2-yl)acetamide], the inhibition at 4 µM was at least 90%.

Consider `O=C(CN1CCc2c([nH]c3ccccc23)C1)N1CCN(CCN2CCCC2)CC1` [Compound 58, 2-{2-Oxo-2-[4-(2-pyrrolidin-1-ylethyl)piperazin-1-yl]ethyl}-2,3,4,9-tetrahydro-1H-beta-carboline], for which the inhibition at 4 µM is at least 90%.

Regarding `CCCCN1CCN(C(=O)CN2CCc3c([nH]c4ccccc34)C2)CC1` [Compound 48, 2-[2-(4-Butylpiperazin-1-yl)-2-oxoethyl]-2,3,4,9-tetrahydro-1H-beta-carboline], the inhibition at 4 µM was at least 90%.

As for `CC1CCCC1N1CCN(C(=O)CN2CCc3c([nH]c4ccccc34)C2)CC1` (stereo not drawn) [Compound 38, 2-{2-[4-(2-Methylcyclopentyl)piperazin-l-yl]-2-oxoethyl}-2,3,4,9-tetrahydro-1H-beta-carboline], the inhibition at 4 µM is at least 90%.

Regarding `CN1CCC(N(C)C(=O)CN2CCc3c([nH]c4ccccc34)C2)CC1` [Compound 43], the inhibition at 4 µM is at least 90%.

For `CC1CCCCN1C1CCN(C(=O)CN2CCc3c([nH]c4ccccc34)C2)CC1` (stereo not drawn) [Compound 34, 2-[2-(2-Methyl-1,4′-bipiperidin-1′-yl)-2-oxoethyl]-2,3,4,9-tetrahydro-1H-beta-carboline], the inhibition at 4 µM is at least 90%.

`O=C(CN1CCc2c([nH]c3ccccc23)C1)N1CCN(CCN2CCCCC2)CC1` [Compound 56, 2-{2-Oxo-2-[4-(2-piperidin-1-ylethyl)piperazin-1-yl]ethyl}-2,3,4,9-tetrahydro-1H-beta-carboline]: the inhibition at 4 µM was at least 90%.

As for `O=C(CN1CCc2c([nH]c3ccccc23)C1)N1CCC(N2CCCCC2)CC1` [Compound 53, 2-[2-(1,4′-Bipiperidin-1′-yl)-2-oxoethyl]-2,3,4,9-tetrahydro-1H-beta-carboline], the inhibition at 4 µM is at least 90%.

In the case of `O=C(CN1CCc2c([nH]c3ccccc23)C1)N1CCCN(C2CCC2)CC1` [Compound 37, 2-[2-(4-Cyclobutyl-1,4-diazepan-1-yl)-2-oxoethyl]-2,3,4,9-tetrahydro-1H-beta-carboline], the inhibition at 4 µM is at least 90%.

For `CCCCN1CCCN(C(=O)CN2CCc3c([nH]c4ccccc34)C2)CC1` [Compound 47, 2-[2-(4-Butyl-1,4-diazepan-1-yl)-2-oxoethyl]-2,3,4,9-tetrahydro-1H-beta-carboline], the inhibition at 4 µM was at least 90%.

Turning to `CCCN(CC1CC1)C1CCN(C(=O)CN2CCc3c([nH]c4ccccc34)C2)CC1` [Compound 51, N-(Cyclopropylmethyl)-N-propyl-1-(1,3,4,9-tetrahydro-2H-beta-carbolin-2-ylacetyl)piperidin-4-amine], the inhibition at 4 µM is at least 90%.

Take `O=C(CN1CCc2c([nH]c3ccccc23)C1)N1CCN(C2CCOCC2)CC1` [Compound 40, 2-{2-Oxo-2-[4-(tetrahydro-2H-pyran-4-yl)piperazin-1-yl]ethyl}-2,3,4,9-tetrahydro-1H-beta-carboline]: the inhibition at 4 µM was at least 90%.

Consider `O=C(CN1CCc2c([nH]c3ccccc23)C1)N1CCC(N2CCCC2)CC1` [Compound 52, 2-[2-Oxo-2-(4-pyrrolidin-1-ylpiperidin-1-yl)ethyl]-2,3,4,9-tetrahydro-1H-beta-carboline], for which the inhibition at 4 µM was at least 90%.

Take `CCN(C(=O)CN1CCc2c([nH]c3ccccc23)C1)C1CCN(C)CC1` [Compound 62, N-(1-Methylpiperidin-4-yl)-N-ethyl-2-(1,3,4,9-tetrahydro-2H-beta-carbolin-2-yl)acetamide]: the inhibition at 4 µM is at least 90%.

With `CCN1CCN(C(=O)CN2CCc3c([nH]c4ccccc34)C2)CC1` [Compound 42, 2-[2-(4-Ethylpiperazin-1-yl)-2-oxoethyl]-2,3,4,9-tetrahydro-1H-beta-carboline], the inhibition at 4 µM is at least 90%.

As to `CN(CCN1CCCC1)C(=O)CN1CCc2c([nH]c3ccccc23)C1` [Compound 63], the inhibition at 4 µM was at least 90%.

Take `COCCN(C(=O)CN1CCc2c([nH]c3ccccc23)C1)C1CCN(C)CC1` [Compound 54, N-(2-Methoxyethyl)-N-(1-methylpiperidin-4-yl)-2-(1,3,4,9-tetrahydro-2H-beta-carbolin-2-yl)acetamide]: the inhibition at 4 µM was at least 90%.

Turning to `O=C(CN1CCc2c([nH]c3ccccc23)C1)N1CCN(CCCN2CCCCC2)CC1` [Compound 57, 2-{2-Oxo-2-[4-(3-piperidin-1-ylpropyl)piperazin-1-yl]ethyl}-2,3,4,9-tetrahydro-1H-beta-carboline], the inhibition at 4 µM was at least 90%.

Turning to `O=C(CN1CCc2c([nH]c3ccccc23)C1)N1CCC(N2CCCC2)C1` (stereo not drawn) [Compound 39, 2-[2-(1,3′-Bipyrrolidin-1′-yl)-2-oxoethyl]-2,3,4,9-tetrahydro-1H-beta-carboline], the inhibition at 4 µM is at least 90%.

With `O=C(CN1CCc2c([nH]c3ccccc23)C1)N1CCN(CCCN2CCCC2)CC1` [Compound 55, 2-{2-Oxo-2-[4-(3-pyrrolidin-1-ylpropyl)piperazin-1-yl]ethyl}-2,3,4,9-tetrahydro-1H-beta-carboline], the inhibition at 4 µM was at least 90%.

Regarding `O=C(CN1CCc2c([nH]c3ccccc23)C1)N1CCN(C2CCCC2)CC1` [Compound 45, 2-[2-(4-Cyclopentylpiperazin-1-yl)-2-oxoethyl]-2,3,4,9-tetrahydro-1H-beta-carboline], the inhibition at 4 µM is at least 90%.

Take `CCCN1CCN(C(=O)CN2CCc3c([nH]c4ccccc34)C2)CC1` [Compound 44, 2-[2-(4-propylpiperazin-1-yl)-2-oxoethyl]-2,3,4,9-tetrahydro-1H-beta-carboline]: the inhibition at 4 µM was at least 90%.

Consider `C=CCN1CCN(C(=O)CN2CCc3c([nH]c4ccccc34)C2)CC1` [Compound 35, 2-[2-(4-Allylpiperazin-1-yl)-2-oxoethyl]-2,3,4,9-tetrahydro-1H-beta-carboline], for which the inhibition at 4 µM was at least 90%.

With `CCN(CC)C1CCN(C(=O)CN2CCc3c([nH]c4ccccc34)C2)C1` (stereo not drawn) [Compound 49, N,N-Diethyl-1-(1,3,4,9-tetrahydro-2H-beta-carbolin-2-ylacetyl)pyrrolidin-3-amine], the inhibition at 4 µM was at least 90%.

As to `O=C(CN1CCc2c([nH]c3ccccc23)C1)N1CCN(C2CCCCC2)CC1` [Compound 41, 2-[2-(4-Cyclohexylpiperazin-1-yl)-2-oxoethyl]-2,3,4,9-tetrahydro-1H-beta-carboline], the inhibition at 4 µM is at least 90%.

As usually defined, the inhibition is the relative decrease from the control value, in per cent.
